# Data taken from patent US7495027B2, “3-aryl-4-hydroxyfuranone compounds and the human and animal health use thereof” (Wyeth, priority 2003, dated 2009).
# Where two headings read alike, the source gives them in different places.
# Assays:
# staphylococci = assay: Minimum inhibitory concentration, microdilution broth method, staphylococci; type: cell-based; details: Mueller-Hinton broth, 18-22 hours at 35° C.; for MIC: Staphylococcus aureus
# Method: (§1) Evaluation of the Minimum Inhibitory Concentration of Test Compounds Against A Variety of Bacterial Strains
# (§2) In this evaluation the minimal inhibitory concentration (MIC) of test compounds against Gram positive and Gram negative bacteria is performed using the microdilution broth method as recommended by the National Committee for Clinical Laboratory Standards (Approved Standards M7-A5 2000). Mueller-Hinton broth is used for the enterobacteriaceae, staphylococci and enterococci. Streptococci are also tested in Mueller-Hinton broth supplemented with 5% horse blood (LHB). Test organisms include recent clinical isolates that are resistant to methicillin, penicillin and/or vancomycin. […].
# Streptococci = assay: Minimum inhibitory concentration, microdilution broth method, streptococci; type: cell-based; details: Mueller-Hinton broth with 5% horse blood, 18-22 hours at 35° C.; for MIC: S. pneumo GC 1894
# Method: as §1, §2
# [1] = biological target: E. coli UDP-N-acetylglucosamine enolpyruvoyl transferase, MurA (Escherichia coli, UniProt P0A749); assay: biochemical; details: (E) E. coli enzyme
# Method: Evaluation of the Inhibitory Activity of Test Compounds Against Enzymes which Catalyze Bacterial Cell Wall Biosynthesis
# S. aureus and E. coli UDP-N-acetylglucosamine enolpyruvoyl transferase, MurA
# (§3) Preparation of Enzyme Solution:
# The enzyme solution is prepared by admixing the following: 50 mM Tris/HCl pH 8.0, […] 1 M Tris, 5 mM DTT, […] 1 M DTT, 20% Glycerol 4 ml 50% Glycerol, add water to 10 ml.
# (§4) Preparation of Stop Solution:
# A procedure similar to that described by C. […] Experiments are performed by adding a solution of test compound (in a mixture of dimethylsulfoxide and water) and an enzyme solution to a well. After a pre-incubation period of 10 mintues at 37° C., Tris/BME buffer and assay buffer are added. A start point optical density (OD0) reading is taken at 340 nm immediately following the addition of assay buffer. After incubation for 1 hr at 37° C., the stop solution is added and the color is allowed to develop for 30 minutes.
# [2] = biological target: E. coli Uridine-diphosphate-N-acetvimuramoyl: L-alanine lipase, MurC (Escherichia coli, UniProt P17952); assay: Inhibitory activity against MurC (E. coli); type: biochemical; details: (E) E. coli enzyme; for IC50: read-out: MurC IC50 (converted)
# Method: S. aureus and E. coli Uridine-diphosphate-N-acetvimuramoyl: L-alanine lipase, MurC
# The buffer is prepared from aqueous reagents with the following final concentrations: 83 mM Tris/HCl (pH 8.0), 50 mM MgC12, and 2 mM ATP.
# as §3
# A 1 mg/mL stock solution of MurC is prepared in a buffer consisting of 20 mM Tris/HCl (pH 8.5) with 2.5 μM BME. The stock solution is further diluted with the buffer to give a final enzyme concentration of 100 μg/mL for the E. coli stock solution and 70 μg/mL for the S. aureus stock solution.
# (§5) Preparation of Test Compound Solutions:
# (§6) All test solutions are prepared in DMSO as 10 mg/mL, then diluted with 50 mM Tris/HCl (pH 8.5) to 100 μg/mL.
# as §4
# The stop solution is prepared by stirring 1 part 4.2% ammonium molydbate in 4N HCl with 2 parts 0.045% malachite green for 30 min.
# In this evaluation, the inhibitory activity of a test compound against MurC, the enzyme which catalyzes the third step of bacterial cell wall bioxynthesis is determined. Experiments are performed by adding 2.5 μl buffer, 2.5 μl 0.5M NH4SO2, 5 μl 2 μM L-Ala, 5 μl enzyme solution and 6.5 μl test compound solution to each well in a 96-well microplate. After a pre-incubation period of 10 mins. at 23° C., 3.75 μl of a 0.75 μM solution of UDP-MurNac is added to each well. Following an incubation period of 10 mins. at 37° C., 210 μl stop solution and 50 μl of a 34% w/v sodium citrate solution are added and color is allowed to develop for 10 mins. at 23° C. (Lanzetta et al., Analytical Biochemistry, 1979, 95) Optical density readings are taken at 660 nm using a Molecular Devices Spectra Max 250 with Soft Max software. Controls are performed using the same procedure and omitting the addition of UDP-MurNac.
# Using these values the IC50 is determined by linear regression analysis.
# enterococci = assay: Minimum inhibitory concentration, microdilution broth method, enterococci; type: cell-based; details: Mueller-Hinton broth, 18-22 hours at 35° C.; for MIC: Enterococcus faecalis
# Method: as §1, §2
# [3] = biological target: E. coli Uridine-diphosphate-N-acetylmuramoyl-L-alanine: D-glutamate liease, MurD (Escherichia coli, UniProt P14900); assay: biochemical; details: (E) E. coli enzyme
# Method: (§7) S. aureus and E. coli Uridine-diphosphate-N-acetylmuramoyl-L-alanine: D-glutamate liease, MurD
# The buffer is prepared from aqueous reagents with the following final concentrations: 83 mM Tris/HCl (pH 8.0), 50 mM MgCl2, and 2 mM ATP.
# as §3, §5, §6, §4
# (§8) In this evaluation, the inhibitory activity of a test compound against MurD, the enzyme which catalyzes the fourth step of bacterial cell wall biosynthesis is determined.
# [4] = biological target: T1, S. aureus Uridine-diphosphate-N-acetylmuramoyl-L-alanine: D-glutamate liease, MurD (Staphylococcus aureus, UniProt Q2FZ92); assay: biochemical; details: (S) S. aureus enzyme
# T1 sequence (Q2FZ92 1-449): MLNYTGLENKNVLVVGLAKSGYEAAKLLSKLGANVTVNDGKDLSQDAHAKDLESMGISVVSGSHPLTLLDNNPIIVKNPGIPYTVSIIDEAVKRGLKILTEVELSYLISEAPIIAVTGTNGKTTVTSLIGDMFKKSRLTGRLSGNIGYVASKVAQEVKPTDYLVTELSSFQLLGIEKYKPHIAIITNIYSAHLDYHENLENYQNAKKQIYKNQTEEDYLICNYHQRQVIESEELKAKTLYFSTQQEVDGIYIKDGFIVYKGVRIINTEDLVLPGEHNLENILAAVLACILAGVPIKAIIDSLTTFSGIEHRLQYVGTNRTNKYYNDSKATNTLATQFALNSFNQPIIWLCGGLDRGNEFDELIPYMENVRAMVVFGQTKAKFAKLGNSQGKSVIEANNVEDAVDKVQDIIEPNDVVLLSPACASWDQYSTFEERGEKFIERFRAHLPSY
# Method: as §7, §3, §5, §6, §4, §8
# [5] = biological target: E. coli Enopyruvyl-UPD-N-acetylglucosamine reductase, Mur B (Escherichia coli, UniProt P08373); assay: biochemical; details: (E) E. coli enzyme; for IC50: read-out: MurB IC50 (converted)
# Method: S. aureus and E. coli Enopyruvyl-UPD-N-acetylglucosamine reductase, Mur B
# Preparation of Tris/BME buffer:
# Dilute 17.5 uL of aqueous 5 mM BME (2-mercaptoethanol) to 50 mL with 50 mM Tris/HCl (pH 8.0).
# as §3
# Dilute aqueous MurB stock solution (0.94 mg/mL) with 200 parts 50 mM Tris/2-BME buffer.
# Synthesis of Substrate for MurB (MurA Product EP-UDP-GluNAc):
# A mixture of 13 mg UDP-N-acetylglucosamine and 5.5 mg phosphoenolpyruvate are dissolved in 10 mL Tris/BME buffer forming 2 mM concentrations of each reagent in solution.
# Preparation of Assay Buffer:
# The assay buffer is prepared in water from reagents with the following final concentrations: 100 mM Tris/HCl (pH 8.0), 200 μM NADPH, 100 μM MurB substrate, 10 μM 2-mercaptoethanol, and 10 μM KCl.
# Experiments are performed by adding 20 μL of a solution of test compound in a mixture of dimethylsulfoxide and water and 30 μL of enzyme solution to a well. After a pre-incubation period of 20 mins. at 23° C., 50 μL of Tris/BME buffer and 100 μL of assay buffer are added. […] Controls are performed using the same procedure and employing 20 μL of a blank dimethylsulfonide and solvent mixture in place of the test compound solution.
# Using these values, the IC50 for each test compound is determined by linear regression analysis.
# [6] = S. aureus GC 1131, read-out: MIC S. aureus GC 1131
# [7] = S. aureus GC 4543, read-out: MIC S. aureus GC 4543
# [8] = E. faecalis GC 2242, read-out: MIC E. faecalis GC 2242
# [9] = E. faecalis GC 4555, read-out: MIC E. faecalis GC 4555
# E. coli Uridine-diphosphate-N-acetylmuramoyl-L-alanine: D-glutamate liease, MurD, sequence (P14900 whole entry): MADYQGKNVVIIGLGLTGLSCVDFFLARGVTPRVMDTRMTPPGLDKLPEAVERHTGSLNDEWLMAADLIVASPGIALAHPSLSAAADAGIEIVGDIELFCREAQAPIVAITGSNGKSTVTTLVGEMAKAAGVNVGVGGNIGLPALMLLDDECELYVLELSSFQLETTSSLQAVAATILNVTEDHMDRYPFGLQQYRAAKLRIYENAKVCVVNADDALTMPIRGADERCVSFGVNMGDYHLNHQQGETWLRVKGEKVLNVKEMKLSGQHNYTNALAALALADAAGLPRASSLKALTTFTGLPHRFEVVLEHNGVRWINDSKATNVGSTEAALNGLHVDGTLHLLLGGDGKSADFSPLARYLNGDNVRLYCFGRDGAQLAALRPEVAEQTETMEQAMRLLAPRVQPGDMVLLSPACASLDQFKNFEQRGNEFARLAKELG
# E. coli Uridine-diphosphate-N-acetvimuramoyl: L-alanine lipase, MurC, sequence (P17952 whole entry): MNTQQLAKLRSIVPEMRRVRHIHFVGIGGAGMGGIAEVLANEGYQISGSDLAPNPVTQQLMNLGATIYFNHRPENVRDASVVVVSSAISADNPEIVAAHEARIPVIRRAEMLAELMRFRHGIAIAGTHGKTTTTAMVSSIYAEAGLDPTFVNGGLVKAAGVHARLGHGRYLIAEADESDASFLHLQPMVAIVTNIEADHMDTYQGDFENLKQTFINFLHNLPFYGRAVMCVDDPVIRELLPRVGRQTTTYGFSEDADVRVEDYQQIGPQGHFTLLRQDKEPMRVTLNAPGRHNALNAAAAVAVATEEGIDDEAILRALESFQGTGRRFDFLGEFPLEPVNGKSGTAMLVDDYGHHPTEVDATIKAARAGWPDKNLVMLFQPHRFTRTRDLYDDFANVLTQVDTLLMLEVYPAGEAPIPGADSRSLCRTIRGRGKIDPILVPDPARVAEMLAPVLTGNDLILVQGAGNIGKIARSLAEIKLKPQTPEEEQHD
# E. coli UDP-N-acetylglucosamine enolpyruvoyl transferase, MurA, sequence (P0A749 whole entry): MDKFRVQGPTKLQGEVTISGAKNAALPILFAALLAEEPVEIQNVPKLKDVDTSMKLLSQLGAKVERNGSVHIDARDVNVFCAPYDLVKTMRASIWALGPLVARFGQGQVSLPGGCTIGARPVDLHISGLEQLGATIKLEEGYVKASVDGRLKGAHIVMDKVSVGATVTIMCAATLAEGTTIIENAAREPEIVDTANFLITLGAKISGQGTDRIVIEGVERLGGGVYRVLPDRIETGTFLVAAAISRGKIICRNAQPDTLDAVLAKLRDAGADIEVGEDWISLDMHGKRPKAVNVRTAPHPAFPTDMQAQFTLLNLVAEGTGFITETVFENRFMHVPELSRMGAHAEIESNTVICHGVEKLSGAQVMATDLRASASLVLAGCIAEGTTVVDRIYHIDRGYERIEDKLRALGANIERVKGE
# E. coli Enopyruvyl-UPD-N-acetylglucosamine reductase, Mur B, sequence (P08373 whole entry): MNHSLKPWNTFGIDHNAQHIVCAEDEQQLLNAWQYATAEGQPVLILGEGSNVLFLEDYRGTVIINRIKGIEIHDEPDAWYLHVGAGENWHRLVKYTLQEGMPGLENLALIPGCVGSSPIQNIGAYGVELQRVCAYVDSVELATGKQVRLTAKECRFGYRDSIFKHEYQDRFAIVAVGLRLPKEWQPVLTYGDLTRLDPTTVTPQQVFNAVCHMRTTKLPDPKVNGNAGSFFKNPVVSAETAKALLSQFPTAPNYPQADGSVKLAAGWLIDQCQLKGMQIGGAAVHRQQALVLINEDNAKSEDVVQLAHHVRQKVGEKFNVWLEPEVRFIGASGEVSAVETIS
SMILES,MIC (staphylococci; [6]) [µg/mL],MIC (staphylococci; [7]) [µg/mL],MIC (Streptococci) [µg/mL],IC50 [1] [µM],IC50 [2] [µM],MIC (enterococci; [8]) [µg/mL],MIC (enterococci; [9]) [µg/mL],IC50 [3] [µM],IC50 [4] [µM],IC50 [5] [µM],MIC S. aureus GC 1131 (staphylococci; S. aureus GC 1131) [µg/mL],MIC S. aureus GC 4543 (staphylococci; S. aureus GC 4543) [µg/mL],MIC S. pneumo GC 1894 (Streptococci) [µg/mL],MurA IC50 [1],MurC IC50 [2],MIC E. faecalis GC 2242 (enterococci; E. faecalis GC 2242) [µg/mL],MIC E. faecalis GC 4555 (enterococci; E. faecalis GC 4555) [µg/mL],MurD IC50 [3] [µg/mL],MurD IC50 [4] [µg/mL],MurB IC50 [5]
Cc1ccc(C2=C(O)/C(=C/c3ccc(-c4ccc(C)cc4)cc3)OC2=O)cc1 [Example 57],32,4,< 0.125,> 67.9,54.3,2,8,46.1,51.6,16.3,,,,,,,,,,
O=C1O/C(=C\c2ccc(-c3ccccc3F)cc2)C(O)=C1c1ccccc1F [Example 58],8,16,< 0.125,> 66.4,37.2,16,> 128,> 66.4,> 66.4,> 66.4,,,,,,,,,,
N#Cc1cccc(-c2ccc(/C=C3\OC(=O)C(c4ccccc4C#N)=C3O)cc2)c1 [Example 59],> 128,> 128,32,43.5,15.4,8,8,12.8,12.8,15.4,,,,,,,,,,
Cc1ccccc1C1=C(O)/C(=C/c2ccc(-c3ccccc3C)cc2)OC1=O [Example 60],16,16,8,> 67.9,38,8,32,> 67.9,59.7,> 67.9,,,,,,,,,,
O=C1O/C(=C\c2ccc(-c3ccccc3C(F)(F)F)cc2)C(O)=C1c1ccccc1C(F)(F)F [Example 61],16,16,8,> 52.5,29.4,16,32,> 52.5,39.9,> 52.5,,,,,,,,,,
CCCc1ccc(-c2ccc(C3=C(O)/C(=C/c4cccc(C(F)(F)F)c4)OC3=O)cc2)cc1 [Example 131],32,16,0.25,8.88,40,4,8,20,,4.44,,,,,,,,,,
CC(C)(C)c1ccc(-c2ccc(C3=C(O)/C(=C/c4cccc(C(F)(F)F)c4)OC3=O)cc2)cc1 [Example 132],16,16,0.25,6.46,51.7,4,8,17.2,,6.46,,,,,,,,,,
CCOc1ccc(-c2ccc(C3=C(O)/C(=C/c4cccc(C(F)(F)F)c4)OC3=O)cc2)cc1 [Example 133],32,32,0.5,44.2,48.6,8,16,48.6,,26.5,,,,,,,,,,
"N#Cc1ccc(C2=C(O)/C(=C/c3ccc(-c4ccc(C#N)cc4)cc3)OC2=O)cc1 [R=H, R1=4-CN—C6H4, R2=4-(4′-CN-biphenyl)]",,,,,,,,,,,>128,>128,64,7 (E) μg/mL,5 (E) μg/mL,32,64,5,> 25,15 (E) μg/mL
